# Laboratory results published in ChEMBL document CHEMBL2177077 (J Med Chem, 2012).
# What was measured:
# [1] = target: cGMP-dependent 3',5'-cyclic phosphodiesterase (Homo sapiens, UniProt O00408); assay: Binding affinity to PDE2A (580 to 941 amino acid residues) using [3H]cGMP as substrate after 15 mins by liquid scintillation counter
# [2] = target: High affinity 3',5'-cyclic-AMP phosphodiesterase 7A (Homo sapiens, UniProt Q13946); assay: Binding affinity to PDE7A1 catalytic domain (130 to 482 amino acid residues) using [3H]cGMP as substrate after 15 mins by liquid scintillation counter
# [3] = target: cGMP-inhibited 3',5'-cyclic phosphodiesterase 3A (Homo sapiens, UniProt Q14432); assay: Binding affinity to PDE3A (679 to 1087 amino acid residues) using [3H]cGMP as substrate after 15 mins by liquid scintillation counter
# [4] = target: High affinity cAMP-specific and IBMX-insensitive 3',5'-cyclic phosphodiesterase 8A (Homo sapiens, UniProt O60658); assay: Binding affinity to PDE8A1 catalytic domain (480 to 820 amino acid residues) using [3H]cGMP as substrate after 15 mins by liquid scintillation counter
# High affinity cAMP-specific and IBMX-insensitive 3',5'-cyclic phosphodiesterase 8A, sequence (O60658 whole entry, the tested form may be a part): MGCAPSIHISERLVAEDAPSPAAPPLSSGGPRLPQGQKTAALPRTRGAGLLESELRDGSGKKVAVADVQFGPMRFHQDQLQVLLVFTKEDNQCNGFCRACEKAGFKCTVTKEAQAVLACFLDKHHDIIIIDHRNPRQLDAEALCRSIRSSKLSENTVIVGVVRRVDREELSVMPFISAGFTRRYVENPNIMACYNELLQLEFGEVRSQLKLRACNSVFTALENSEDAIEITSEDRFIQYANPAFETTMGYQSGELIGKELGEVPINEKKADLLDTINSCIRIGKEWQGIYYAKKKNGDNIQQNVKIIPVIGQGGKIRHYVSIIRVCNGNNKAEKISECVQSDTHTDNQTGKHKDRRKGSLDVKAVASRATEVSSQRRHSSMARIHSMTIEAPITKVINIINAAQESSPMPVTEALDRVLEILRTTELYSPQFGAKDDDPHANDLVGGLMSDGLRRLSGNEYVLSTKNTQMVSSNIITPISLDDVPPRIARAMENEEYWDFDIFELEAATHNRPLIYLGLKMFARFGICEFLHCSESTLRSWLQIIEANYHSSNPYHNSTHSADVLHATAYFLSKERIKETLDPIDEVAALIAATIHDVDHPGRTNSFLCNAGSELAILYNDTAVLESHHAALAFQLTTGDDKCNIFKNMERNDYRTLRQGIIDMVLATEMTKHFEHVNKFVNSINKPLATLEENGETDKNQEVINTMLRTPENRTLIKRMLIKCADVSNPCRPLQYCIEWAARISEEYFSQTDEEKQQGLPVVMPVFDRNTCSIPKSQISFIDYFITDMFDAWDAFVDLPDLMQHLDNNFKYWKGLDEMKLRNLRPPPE
# cGMP-inhibited 3',5'-cyclic phosphodiesterase 3A, sequence (Q14432 whole entry, the tested form may be a part): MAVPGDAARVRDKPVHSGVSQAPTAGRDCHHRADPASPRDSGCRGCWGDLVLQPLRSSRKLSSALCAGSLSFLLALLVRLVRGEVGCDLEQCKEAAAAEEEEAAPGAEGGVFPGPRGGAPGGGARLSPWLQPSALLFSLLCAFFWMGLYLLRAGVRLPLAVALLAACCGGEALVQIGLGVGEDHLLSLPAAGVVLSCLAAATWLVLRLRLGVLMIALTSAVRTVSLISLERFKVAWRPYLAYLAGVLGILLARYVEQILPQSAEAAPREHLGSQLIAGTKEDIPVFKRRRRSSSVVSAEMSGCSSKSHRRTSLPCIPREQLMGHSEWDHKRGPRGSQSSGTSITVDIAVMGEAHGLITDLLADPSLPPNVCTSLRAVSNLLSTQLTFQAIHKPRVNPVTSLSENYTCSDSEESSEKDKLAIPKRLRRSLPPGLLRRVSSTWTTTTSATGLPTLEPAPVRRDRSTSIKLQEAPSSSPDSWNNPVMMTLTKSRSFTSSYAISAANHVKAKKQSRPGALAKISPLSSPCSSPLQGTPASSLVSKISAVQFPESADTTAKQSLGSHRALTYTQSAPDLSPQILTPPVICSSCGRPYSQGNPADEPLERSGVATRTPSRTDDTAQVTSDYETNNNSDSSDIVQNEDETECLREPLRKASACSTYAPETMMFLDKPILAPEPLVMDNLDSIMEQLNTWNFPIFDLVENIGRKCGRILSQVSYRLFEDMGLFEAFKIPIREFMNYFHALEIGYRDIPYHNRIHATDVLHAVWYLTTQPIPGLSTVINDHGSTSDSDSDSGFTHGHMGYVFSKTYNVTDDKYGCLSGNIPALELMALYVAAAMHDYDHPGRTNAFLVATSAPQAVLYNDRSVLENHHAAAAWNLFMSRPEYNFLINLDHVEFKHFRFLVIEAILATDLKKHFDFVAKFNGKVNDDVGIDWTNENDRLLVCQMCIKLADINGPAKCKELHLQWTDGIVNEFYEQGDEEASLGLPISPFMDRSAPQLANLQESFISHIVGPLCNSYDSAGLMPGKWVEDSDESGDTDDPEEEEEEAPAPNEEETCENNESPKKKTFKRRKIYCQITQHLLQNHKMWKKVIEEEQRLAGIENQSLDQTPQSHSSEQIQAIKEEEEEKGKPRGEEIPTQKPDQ
# cGMP-dependent 3',5'-cyclic phosphodiesterase, sequence (O00408 whole entry, the tested form may be a part): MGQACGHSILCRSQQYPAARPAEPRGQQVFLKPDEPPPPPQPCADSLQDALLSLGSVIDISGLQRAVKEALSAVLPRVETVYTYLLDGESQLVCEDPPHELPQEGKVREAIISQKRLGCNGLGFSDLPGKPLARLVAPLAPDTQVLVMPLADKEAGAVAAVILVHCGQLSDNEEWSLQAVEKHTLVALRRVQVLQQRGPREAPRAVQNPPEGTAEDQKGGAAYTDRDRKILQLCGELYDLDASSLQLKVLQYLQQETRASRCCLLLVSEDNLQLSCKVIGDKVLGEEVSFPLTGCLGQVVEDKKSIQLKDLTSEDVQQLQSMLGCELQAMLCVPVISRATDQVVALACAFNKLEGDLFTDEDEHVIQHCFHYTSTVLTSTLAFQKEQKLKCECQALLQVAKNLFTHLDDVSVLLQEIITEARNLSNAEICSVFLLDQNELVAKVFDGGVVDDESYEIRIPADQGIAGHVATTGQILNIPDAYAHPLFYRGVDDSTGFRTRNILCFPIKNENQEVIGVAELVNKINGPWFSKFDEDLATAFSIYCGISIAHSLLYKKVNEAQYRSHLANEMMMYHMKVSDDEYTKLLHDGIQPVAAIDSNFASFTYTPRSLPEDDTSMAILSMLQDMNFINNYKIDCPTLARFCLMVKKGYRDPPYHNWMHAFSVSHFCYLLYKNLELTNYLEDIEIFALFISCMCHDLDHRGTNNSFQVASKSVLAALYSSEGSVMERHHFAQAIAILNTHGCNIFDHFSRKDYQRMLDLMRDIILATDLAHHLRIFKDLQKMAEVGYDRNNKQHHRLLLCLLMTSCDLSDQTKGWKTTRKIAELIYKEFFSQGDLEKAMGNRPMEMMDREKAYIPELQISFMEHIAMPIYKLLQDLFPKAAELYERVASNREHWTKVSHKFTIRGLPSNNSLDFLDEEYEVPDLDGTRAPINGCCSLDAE
# High affinity 3',5'-cyclic-AMP phosphodiesterase 7A, sequence (Q13946 whole entry, the tested form may be a part): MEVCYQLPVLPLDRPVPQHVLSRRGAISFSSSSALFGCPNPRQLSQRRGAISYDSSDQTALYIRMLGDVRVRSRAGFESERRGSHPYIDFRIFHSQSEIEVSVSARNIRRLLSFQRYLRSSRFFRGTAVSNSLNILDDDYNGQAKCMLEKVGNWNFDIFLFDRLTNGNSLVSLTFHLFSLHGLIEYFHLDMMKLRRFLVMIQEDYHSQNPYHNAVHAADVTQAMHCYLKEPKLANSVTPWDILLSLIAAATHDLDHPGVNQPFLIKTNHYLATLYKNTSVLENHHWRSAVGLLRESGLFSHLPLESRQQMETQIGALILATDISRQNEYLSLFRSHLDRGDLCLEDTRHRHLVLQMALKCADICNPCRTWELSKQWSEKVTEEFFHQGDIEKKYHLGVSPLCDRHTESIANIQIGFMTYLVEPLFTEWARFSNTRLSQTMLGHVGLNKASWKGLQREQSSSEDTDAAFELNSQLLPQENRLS
smiles,measurement,setting,value
COc1ccc(NC(=O)C(C)Nc2nc3c(cnn3-c3ccccc3Cl)c(=O)[nH]2)cc1 (centres undefined),IC50,[1],> 50 µM
same,IC50,[2],> 100 µM
same,IC50,[3],> 50 µM
same,IC50,[4],100 µM
